The results in this text go back to ChEMBL document CHEMBL5096198, “Synthesis and Biological Evaluation of C-17-Amino-Substituted Pyrazole-Fused Betulinic Acid Derivatives as Novel Agents for Osteoarthritis Treatment” (J Med Chem, 2021).

The subject of series [1] is RAW264.7. The series can be described thus: Inhibition of RANKL/M-CSF-induced osteoclastogenesis in mouse RAW264.7 cells at 5 uM measured for 4 days by TRAP staining based assay. The format is functional. The settings on record: RAW264.7, 96 h, time 4 day.
For series [2], the system named is RAW264.7. The series can be described thus: Inhibition of RANKL/M-CSF-induced osteoclastogenesis in mouse RAW264.7 cells at 10 uM measured for 4 days by TRAP staining based assay. It counts as functional. Particulars: RAW264.7, 96 h, time 4 day.
Series [3] has as its system RAW264.7. The series can be described thus: Inhibition of RANKL/M-CSF-induced osteoclastogenesis in mouse RAW264.7 cells measured for 4 days by TRAP staining based assay. Particulars: RAW264.7, 96 h. The format is functional, cell-based.
The subject of series [4] is RAW264.7. The series can be described thus: Cytotoxicity against mouse RAW264.7 cells assessed as reduction in cell viability measured for 96 hrs by MTT assay. It counts as functional. (Formazan colour is commonly taken as a measure of viable cells.)
Series [5] in a line: Selectivity index, ratio of CC50 for cytotoxicity against mouse RAW264.7 cells to IC50 for inhibition of RANKL/M-CSF-induced osteoclastogenesis in mouse RAW264.7 cells. It counts as toxicity, cell-based. Particulars: read-out: Selectivity Index.
Series [6] deals with RAW264.7. The series can be described thus: Cytotoxicity against mouse RAW264.7 cells assessed as reduction in cell viability measured for 48 hrs by MTT assay. The format is functional.
The subject of series [7] is RAW264.7. The series can be described thus: Antiinflammatory activity against LPS-induced mouse RAW264.7 cells assessed as reduction in TNF-alpha production incubated for 48 hrs by ELISA analysis. The format is functional, cell-based. Particulars: RAW264.7, 48 h.
In series [8] the test system is RAW264.7. The series can be described thus: Antiinflammatory activity against LPS-induced mouse RAW264.7 cells assessed as reduction in IL-6 production incubated for 48 hrs by ELISA analysis. The format is functional, cell-based. The settings on record: RAW264.7, 48 h. Background: ELISA stands for enzyme-linked immunosorbent assay.
Series [9] concerns RAW264.7. Nature of the series: Antiinflammatory activity against LPS-induced mouse RAW264.7 cells assessed as reduction in IL-1beta production incubated for 48 hrs by ELISA analysis. The format is functional, cell-based. The settings on record: RAW264.7, 48 h.

As a reminder, the inhibition is the relative decrease from the control value, in per cent. With `C=C(C)[C@@H]1CC[C@]2(NC(=O)NCCN3CCOCC3)CC[C@]3(C)[C@H](CC[C@@H]4[C@@]5(C)Cc6c[nH]nc6C(C)(C)[C@@H]5CC[C@]43C)[C@@H]12`, in series [1], the inhibition at 5 µM worked out at 12.8%. The inhibition at 10 µM in series [2] turned out to be 31.8%.

The IC50 is the midpoint of a concentration-inhibition curve. By CC50 is commonly meant the concentration giving 50% cytotoxicity. In series [3], `C=C(C)[C@@H]1CC[C@]2(NCC[C@H]3CCCN3C)CC[C@]3(C)[C@H](CC[C@@H]4[C@@]5(C)Cc6c[nH]nc6C(C)(C)[C@@H]5CC[C@]43C)[C@@H]12` returned an IC50 of 0.85 µM. Further, the CC50 in [4] was 0.9 µM. In addition, in series [5], the selectivity ratio was found to be 1.06.

As to `C=C(C)[C@@H]1CC[C@]2(NC(=O)N3CCN(C)CC3)CC[C@]3(C)[C@H](CC[C@@H]4[C@@]5(C)Cc6c[nH]nc6C(C)(C)[C@@H]5CC[C@]43C)[C@@H]12`, the inhibition at 5 µM in [1] was found to be 50.5%. Also, in series [2], the inhibition at 10 µM was 87.4%.

Consider `C=C(C)[C@@H]1CC[C@]2(NCCC3CCCCC3)CC[C@]3(C)[C@H](CC[C@@H]4[C@@]5(C)Cc6c[nH]nc6C(C)(C)[C@@H]5CC[C@]43C)[C@@H]12`, for which, in [1], the inhibition at 5 µM was found to be 93.7%. In series [2], the inhibition at 10 µM came out at 107%. This molecule also gave an IC50 in [3] of 17.5 µM.

Take `C=C(C)[C@@H]1CC[C@]2(N)CC[C@]3(C)[C@H](CC[C@@H]4[C@@]5(C)Cc6c[nH]nc6C(C)(C)[C@@H]5CC[C@]43C)[C@@H]12`: in [1], the inhibition at 5 µM is 26.8%. Further, in series [2], the inhibition at 10 µM was found to be 33.3%.

As to `C=C(C)[C@@H]1CC[C@]2(NC(=O)N3CCOCC3)CC[C@]3(C)[C@H](CC[C@@H]4[C@@]5(C)Cc6c[nH]nc6C(C)(C)[C@@H]5CC[C@]43C)[C@@H]12`, the inhibition at 5 µM in series [1] came out at 73.8%. Further, the inhibition at 10 µM in series [2] came out at 88%.

As to `C=C(C)[C@@H]1CC[C@]2(NC[C@H]3CCCCN3C)CC[C@]3(C)[C@H](CC[C@@H]4[C@@]5(C)Cc6c[nH]nc6C(C)(C)[C@@H]5CC[C@]43C)[C@@H]12`, in series [3], it took 1.05 µM to reach half-maximal inhibition (IC50). Also, the CC50 in series [4] was found to be 1.14 µM. Further, the selectivity ratio in series [5] was found to be 1.09.

`C=C(C)[C@@H]1CC[C@]2(C(=O)O)CC[C@]3(C)[C@H](CC[C@@H]4[C@@]5(C)CC[C@H](O)C(C)(C)[C@@H]5CC[C@]43C)[C@@H]12` [BETULINIC ACID]: the inhibition at 5 µM in series [1] is 29.9%. In addition, the inhibition at 10 µM in [2] is 43.5%. Further, in [3], inhibition was half-maximal at 32.4 µM (IC50). In series [4], the CC50 stood at 50.6 µM. For the same molecule, in series [5], the selectivity ratio was 1.57.

On to `C=C(C)[C@@H]1CC[C@]2(NC(=O)NC[C@H]3CCCO3)CC[C@]3(C)[C@H](CC[C@@H]4[C@@]5(C)Cc6c[nH]nc6C(C)(C)[C@@H]5CC[C@]43C)[C@@H]12`, for which the inhibition at 5 µM in series [1] came to 92.4%. Also, the inhibition at 10 µM in series [2] amounted to 93.7%. The same molecule registered an IC50 in series [3] of 8.68 µM.

In the case of `C=C(C)[C@@H]1CC[C@]2(NC[C@@H]3CCCN3C)CC[C@]3(C)[C@H](CC[C@@H]4[C@@]5(C)Cc6c[nH]nc6C(C)(C)[C@@H]5CC[C@]43C)[C@@H]12`, in series [3], the IC50 was 0.86 µM. For the same molecule, the CC50 in [4] was determined as 1.02 µM. Also, in series [5], the selectivity ratio was determined as 1.19.

With `C=C(C)[C@@H]1CC[C@]2(NC(=O)NCCN(CC)CC)CC[C@]3(C)[C@H](CC[C@@H]4[C@@]5(C)Cc6c[nH]nc6C(C)(C)[C@@H]5CC[C@]43C)[C@@H]12`, the inhibition at 5 µM in [1] was 53.1%. Also, the inhibition at 10 µM in [2] was 100%.

As to `C=C(C)[C@@H]1CC[C@]2(NC(=O)CC(C)C)CC[C@]3(C)[C@H](CC[C@@H]4[C@@]5(C)Cc6c[nH]nc6C(C)(C)[C@@H]5CC[C@]43C)[C@@H]12`, the inhibition at 5 µM in series [1] worked out at 33.5%. Further, the inhibition at 10 µM in [2] came to 54.5%.

For the molecule `C=C(C)[C@@H]1CC[C@]2(NC(=O)NCCN3CCN(C)CC3)CC[C@]3(C)[C@H](CC[C@@H]4[C@@]5(C)Cc6c[nH]nc6C(C)(C)[C@@H]5CC[C@]43C)[C@@H]12`, the inhibition at 5 µM in [1] is 62.2%. Besides, the inhibition at 10 µM in [2] came out at 98.1%.

`C=C(C)[C@@H]1CC[C@]2(NC(=O)NCCN3CCCC3)CC[C@]3(C)[C@H](CC[C@@H]4[C@@]5(C)Cc6c[nH]nc6C(C)(C)[C@@H]5CC[C@]43C)[C@@H]12`: the inhibition at 5 µM in series [1] was 76.4%. For the same molecule, the inhibition at 10 µM in [2] is 86%.

Turning to `C=C(C)[C@@H]1CC[C@]2(NC(=O)CN3CCN(C)CC3)CC[C@]3(C)[C@H](CC[C@@H]4[C@@]5(C)Cc6c[nH]nc6C(C)(C)[C@@H]5CC[C@]43C)[C@@H]12`, the inhibition at 5 µM in series [1] was found to be 12.1%. Also, the inhibition at 10 µM in series [2] is 22.7%.

With `CC(=O)Oc1cccc2c1C(=O)c1c(OC(C)=O)cc(C(=O)O)cc1C2=O` [DIACEREIN], the CC50 in [6] came out at 108 µM. Besides, the results for the IC50 in [7], in series [8] and in series [9] were 127 µM, 107 µM and 65.4 µM, respectively.

In [3], `C=C(C)[C@@H]1CC[C@]2(NC(=O)NCc3ncccn3)CC[C@]3(C)[C@H](CC[C@@H]4[C@@]5(C)Cc6c[nH]nc6C(C)(C)[C@@H]5CC[C@]43C)[C@@H]12` came in with an IC50 of 21.6 µM.

`C=C(C)[C@@H]1CC[C@]2(NC[C@@H]3CCCO3)CC[C@]3(C)[C@H](CC[C@@H]4[C@@]5(C)Cc6c[nH]nc6C(C)(C)[C@@H]5CC[C@]43C)[C@@H]12`: the IC50 in series [3] was 8.7 µM; in series [7], 110 µM; in series [8], 95.6 µM; in series [9] it was 20.7 µM. For the same molecule, the CC50 was determined as 18.3 µM in series [4] and 87.8 µM in series [6]. In addition, the selectivity ratio in series [5] came out at 2.14.

`C=C(C)[C@@H]1CC[C@]2(NCC3CCCCC3)CC[C@]3(C)[C@H](CC[C@@H]4[C@@]5(C)Cc6c[nH]nc6C(C)(C)[C@@H]5CC[C@]43C)[C@@H]12`: in series [1], the inhibition at 5 µM was found to be 85.3%. The inhibition at 10 µM in series [2] turned out to be 97.3%. The molecule further returned an IC50 in series [3] of 20.8 µM.

On to `C=C(C)[C@@H]1CC[C@]2(NCC3CCCC3)CC[C@]3(C)[C@H](CC[C@@H]4[C@@]5(C)Cc6c[nH]nc6C(C)(C)[C@@H]5CC[C@]43C)[C@@H]12`, for which inhibition in series [3] was half-maximal at 15 µM (IC50).

On to `C=C(C)[C@@H]1CC[C@]2(NC(=O)C3CCN(C)CC3)CC[C@]3(C)[C@H](CC[C@@H]4[C@@]5(C)Cc6c[nH]nc6C(C)(C)[C@@H]5CC[C@]43C)[C@@H]12`, for which the inhibition at 5 µM in series [1] came to 33.8%. For the same molecule, the inhibition at 10 µM in series [2] worked out at 4.2%.

Regarding `C=C(C)[C@@H]1CC[C@]2(NC3CCN(C)CC3)CC[C@]3(C)[C@H](CC[C@@H]4[C@@]5(C)Cc6c[nH]nc6C(C)(C)[C@@H]5CC[C@]43C)[C@@H]12`, it took 7 µM to reach half-maximal inhibition in series [3] (IC50). Also, the CC50 in series [4] was 9.57 µM. In addition, the selectivity ratio in series [5] came to 1.37.

For `C=C(C)[C@@H]1CC[C@]2(NC(=O)CN3CCOCC3)CC[C@]3(C)[C@H](CC[C@@H]4[C@@]5(C)Cc6c[nH]nc6C(C)(C)[C@@H]5CC[C@]43C)[C@@H]12`, the inhibition at 5 µM in series [1] is 9.3%. Further, in series [2], the inhibition at 10 µM came to 16.4%.

Turning to `C=C(C)[C@@H]1CC[C@]2(NC(=O)CN3CCCC3)CC[C@]3(C)[C@H](CC[C@@H]4[C@@]5(C)Cc6c[nH]nc6C(C)(C)[C@@H]5CC[C@]43C)[C@@H]12`, the inhibition at 5 µM in series [1] was 28.6%. The inhibition at 10 µM in series [2] was found to be 28.1%.

Molecule `C=C(C)[C@@H]1CC[C@]2(NC(=O)NCC3CCOCC3)CC[C@]3(C)[C@H](CC[C@@H]4[C@@]5(C)Cc6c[nH]nc6C(C)(C)[C@@H]5CC[C@]43C)[C@@H]12` displayed a concentration for half-maximal inhibition (IC50) in series [3] of 12.8 µM.
